In patent US20160089464A1, “MALODOR REDUCTION COMPOSITIONS” (The Procter & Gamble Company, priority 2014, published 2016):

assay: Comment Code material properties: vapor pressure, ClogP, probability of ingredient color instability, odor detection threshold, melamine formaldehyde PMC headspace response ratio and leakage, liquid dish neat product liquid-air partition coefficient; format: physicochemical; details: Table 1 materials; each letter of the code is one property class (vapor pressure, ClogP, color instability, odor detection threshold, PMC headspace ratio, PMC leakage, liquid dish liquid-air partition coefficient)

SMILES	Comment Code
CCC(=O)C=CC1C(C)=CCCC1(C)C (stereo not drawn) [Material 700]	BDHJK
C=C(C)C1CC=C(C)CC1 (stereo not drawn) [Material 702]	ADEFGIJKL
CC(=O)C=CC1C(C)=CCC(C)C1(C)C (stereo not drawn) [Material 704]	BDHJK
CC1=CCCC(C)=CCC(C)(C)C=CC1 [Material 706]	DEFHJK
C=C1CCCC(C)(C)C2C=C(C)CCC12 (stereo not drawn) [Material 707]	BDEFHJK
CC1=C2C(CC1)C(C)CCC1C2C1(C)C (stereo not drawn) [Material 708]	BDEFHJKL
C=C(C)C1CCC(C)C2=C(C1)C(C)CC2 (stereo not drawn) [Material 709]	DEFHJKL
C=CC(C)=CCC=C(C)CCC=C(C)C [Material 710]	DEFHJK
C=C1CC2CCC1C2(C)C (stereo not drawn) [Material 711]	ADEFGIJKL
CC1=CCCC2(C)CCC(C(C)(C)O)CC12 (stereo not drawn) [Material 712]	DEFHJK
CC(C)=CCCC(C)c1ccc(C)cc1 (stereo not drawn) [Material 713]	DEFHJK
CC1=CCC23C(C)CCC(C(C)C)C2C13 (stereo not drawn) [Material 714]	ADEFHJKL
CC1=CC2C(C(C)C)CCC(C)(O)C2CC1 (stereo not drawn) [Material 716]	DEFHJK
CC1=CC2C(CC1)C(C)=CCC2C(C)C (stereo not drawn) [Material 717]	DEFHJKL
CC(C)=CCCC(C)(O)C1CC=C(C)CC1 (stereo not drawn) [Material 718]	DFHJK
CC(C)=CCC=C(C)C1CC=C(C)CC1 (stereo not drawn) [Material 719]	DEFHJK
CC(C)=CCCC1(C)C2CC=C(C)C1C2 (stereo not drawn) [Material 720]	BDEFHJKL
CCCCCC(=Cc1ccccc1)CO [Material 721]	DEFHJ

SMILES	Comment Code
CCCCCC(=Cc1ccccc1)COC(C)=O [Material 722]	DEFHJ
CCCCCC(=Cc1ccccc1)C(OCC)OCC [Material 723]	DEFHJ
CC1=CC2C(CC1)C(C)=CCC2C(C)C (stereo not drawn) [Material 725]	DEFHJKL
CC1=CCCC2(C)CCC3CC12OC3(C)C (stereo not drawn) [Material 726]	BDEFHJK
CC(C)=CCCC1=CCC(C)(C=O)CC1 (stereo not drawn) [Material 727]	DFHJK
CCCC(O)Cc1ccccc1 (stereo not drawn) [Material 730]	CEFHK
CCC(C)(O)CCc1ccccc1 (stereo not drawn) [Material 731]	CEFHJK
COc1ccc(C=O)c(OC)c1OC [Material 733]	BCGI
COc1cc(OC)c(C=O)c(OC)c1 [Material 736]	BCGI
CCCCC=CC=CC=O [Material 738]	ACHKL
CC(C)CCCC(C)CCCC(C)C=O (stereo not drawn) [Material 741]	BDFGJK
Cc1ccc(CC(C)C=O)cc1 (stereo not drawn) [Material 742]	ACHJK
C=CCOC(=O)CCC1CCCCC1 [Material 746]	BDEFHJK
C=CCOC(=O)COCCC(C)C [Material 748]	BCEFGJK
C=C1CCC2C(C3C(C)CCC13)C2(C)C (stereo not drawn) [Material 750]	BDEFHJKL
COC(=O)c1ccccc1N=CC1CC(C)=CC(C)C1 (stereo not drawn) [Material 754]	DEFHJ
CC(C)=CCCC(C)CCCC(C)C=O (stereo not drawn) [Material 757]	BDFHJK

same assay, conditions: cell strings several class symbols together; each letter is one property class of L1

SMILES	Comment Code
CC(C=O)=Cc1ccccc1 [Material 701]	ACHIK
CC(=O)C(C)=CC1C(C)=CCCC1(C)C (stereo not drawn) [Material 703]	BDHIJK
CC1=C2C(CC1)C(C)CCC1C2C1(C)C (stereo not drawn) [Material 708]	BDEFHJKL
CC1=CCCC2(C)CCC(C(C)(C)O)CC12 (stereo not drawn) [Material 712]	DEFHJK
CC1=CCC23C(C)CCC(C(C)C)C2C13 (stereo not drawn) [Material 714]	ADEFHJKL
CC1=CCCC2(C)CCC3CC12OC3(C)C (stereo not drawn) [Material 726]	BDEFHJK
COC1=C(C)OC(C)C1=O (stereo not drawn) [Material 740]	ACEFGIJKL
C=CCOC(=O)COc1ccccc1 [Material 743]	BCGK
C=CCOCCc1ccccc1 [Material 744]	ACEFHK
C=C1CCC2C(C3C(C)CCC13)C2(C)C (stereo not drawn) [Material 750]	BDEFHJKL
CCC(=O)N(CC)c1cccc(C)c1 [Material 755]	CEFHJK
CC(=O)C(C)O (stereo not drawn) [Material 760]	ACEFGIKL
COc1ccc(C(C)=O)cc1 [Material 761]	BCEFHIK
